Measurements from US20210244712A1, “METHODS FOR TREATING PATIENTS WITH CANCER HAVING DEFECTS IN CYCLIN D REGULATION” (NysnoBio Ireland DAC, priority 2018, published 2021).
pEC50, pIC50: −log10 of the molar value.

Experiments:
Assay type in all cases: cell-based
HCT-116 = assay: Senescence quantification (SA-βGal), Example 6A; settings: Compound 42 250 nM, Palbociclib 1 μM, compared to control (DMSO)
Description: Day 1: 96 well plate was seeded with 4000 cells/well and incubated for 24 hours at 37° C. […]
Day 6: Senescence cells histochemical Staining Kit (Sigma) was used. The growth medium form the cells were aspirated then washed twice with fresh […]. […] 100 μL filtered Fixation Buffer was added per well and the plate was incubated for 6-7 minutes at room temperature. Then, the cells were rinsed 3 times with PBS. 50 μL of the Staining Mixture was added per well and incubated at 37° C. overnight without CO2 (staining is pH dependent). After staining, the Staining Mixture was removed, PBS and Hoechst dye (1 μg/mL) were added. Ten images were taken with Epifluorescence Microscope using the blue filter and 10 images were taken in the brightfield. The images were used to count the total cell number—the positive blue cells were counted in the bright field. The percentage of cells expressing β-galactosidase was calculated.
Method 1: Mammalian β-Galactosidase Assay Kit (Thermo Scientific) was used. […] The cells were washed once with PBS. 100 μL of the β-Galactosidase Assay Reagent was added to each well and the plate was covered and incubated for 30 minutes at 37° C. without CO2. The absorbance was measured at 405 nm. […]
Method 2: Assay of a portion of the lysate. […] 25 μL of lysate was removed and use it for Protein Quantification (BCA). […]
Senescence was quantified according to Example 4. […]

cyclin E1 = assay: Western blot of cellular biomarker cyclin E1; settings: 250 nM Compound 42, 24 hours, compared to palbociclib 1 μM
Description: (§1) Various cancer cells lines were treated with Compound 42 or palbociclib (control) to measure the expression of cyclin D, cyclin E, pRb, and Rb.
(§2) Day 1: 6 well plate was seeded with 3×10^5 cells/well with a final volume of 3 mL and incubated for 24 hours at 37° C.
(§3) Day 2: The media was removed and Compound 42 (see below for dose) or palbociclib (1 μM) as positive control were added to the wells the desired concentration in cell culture media, giving a final volume of 3 mL per well. The plate was incubated for 24 hours at 37° C. (or desired period).
(§4) Day 3: The media was removed from wells and washed ×3 with PBS. 500 μl of trypsin was added to the wells and incubate until cells detach. 500 μl media was added to neutralise trypsin, transferred to 2 ml Eppendorfs, and centrifuged (1500 RPM for 5 minutes). While spinning, the wells were washed with 1 mL PBS to collect any remaining cells. This wash was used to centrifuged cell pellet. After the first spin, the supernatant was discarded and the pellet was washed with PBS collected from the previous step. The centrifugation step was repeated and the supernatant was discarded and the pellet wash again with fresh PBS. The centrifugation and wash with PBS was repeated one more time. RIPA cell lysate buffer was prepared and Protease Inhibitor Cocktail was included. The supernatant was discarded and […] RIPA cell lysate buffer was added to the pellet. The protein concentration was determined using the BCA assay kit.
(§5) Day 4: Western blot analysis was performed. 4-12% Bis-Tris gel and MOPS running buffer was used. The running buffer was made to sufficient volume of running buffer to 1× concentration. 20 μg protein (v/v loading & reducing buffer) of each sample was loaded into wells. Some proteins may require more, or less, protein loaded. The gel was ran at standard settings 200 V for 45 minutes. […] The membrane was blocked using 5% non-fat powdered milk* made up in 1×TBS containing 0.1% Tween (TBS-T and incubated for 1 hr with gentle rocking. The observation from the Western blot analysis is quantified in FIGS. 2-7D. […]

Cyclin D [1] = assay: Western blot of cellular biomarker cyclin D
Description: as §1, §2, §3, §4
Day 4: Western blot analysis was performed. 4-12% Bis-Tris gel and MOPS running buffer was used. The running buffer was made to sufficient volume of running buffer to 1× concentration. 20 μg protein (v/v loading & reducing buffer) of each sample was loaded into wells. Some proteins may require more, or less, protein loaded. The gel was ran at standard settings 200 V for 45 minutes. Once gel has run, the gel was transferred for 7 minutes using the iBlot Blotting System. The membrane was blocked using 5% non-fat powdered milk* made up in 1×TBS containing 0.1% Tween (TBS-T and incubated for 1 hr with gentle rocking. The observation from the Western blot analysis is quantified in FIGS. 2-7D.
Cell line JEKO-1 (mantle cell line with cyclin D chromosome translocation, amplification of cyclin D) was treated with DMSO (control), 500 nM of Compound 42, or 1 μM of Palbociclib. Treated cells were incubated for 48 hours and data represented in FIGS. 6A-6C represents n=1.

Cyclin D [2] = assay: Cyclin D degradation in cell lines; settings: text summary of Table 7
Rb = assay: Western blot of cellular biomarker Rb
Description: as §1, §2, §3, §4, §5

A2780 = assay: Cell proliferation assay; settings: Homo sapiens; for pIC50: Ovarian A2780
Description: Measurement of the inhibitive effect of compounds on cancer cell proliferation was performed. The assays were performed under the following conditions: Cells are harvested at a concentration of 4×10^4 cells/ml in media. Volumes of 100 μL/well of these cell suspensions were added to a 96 well plate using a multichannel pipette. Plates were gently agitated to ensure an even dispersion of cells over a given plate. Cells were then incubated at 37° C., 5% CO2 overnight. Following this, 100 μL of compound at varying concentrations was added to wells in triplicate. Control wells are those with 100 μL media containing 0.33% DMSO added to cell suspension (this is the equivalent volume of DMSO found in the highest concentration of drug). Plates were then gently agitated, as above, and incubated at 37° C., 5% CO2 for 72 hrs (control wells have reached 80-90% confluency). Assessment of cell proliferation in the presence of Compounds C and F was determined by the acid phosphatase assay.
Following the incubation period of 72 hrs, media was removed from the plates. Each well on the plate was washed twice with 100 μL PBS. This was then removed and 100 μL of freshly prepared phosphatase substrate (10 mM p-nitrophenol phosphate in 0.1M sodium acetate, 0.1% triton X-100, pH 5.5) was added to each well. The plates were then incubated in the dark at 37° C. for 2 hours. Color development was monitored during this time. The enzymatic reaction was stopped by the addition of 50 μL of 1N NaOH. The plate was read in a dual beam plate reader at 405 nm with a reference wavelength of 620 nm. The absorbance reading of the latter is subtracted from the former, and the effect of the drug on cell proliferation was then measured as a percentage against the control cells (DMSO), which is taken as 0% inhibition.

[3] = HT116, with increasing concentration

Structure (SMILES)	senescence (SA-βGal levels) (HCT-116)	cyclin E1 expression (cyclin E1; A2780)	cyclin E1 expression (cyclin E1; ES-2)	cyclin E1 expression (cyclin E1; OAW42)	normalization of cyclin D (Cyclin D [1]; HCT-116 (p16 mutation), Compound 42 250 nM, Palbociclib 1 μM)	cyclin D expression (Cyclin D [1]; [3])	cyclin D expression (Cyclin D [1]; JEKO-1, 500 nM Compound 42, 48 hours, compared to palbociclib 1 μM)	cyclin D expression (Cyclin D [1]; OAW28)	degrading Cyclin D, overall statement (Cyclin D [2])	Rb expression (Rb; ES-2, 250 nM Compound 42, 24 hours, compared to palbociclib 1 μM)	Rb expression (Rb; [3])	Rb expression (Rb; OAW42, 250 nM Compound 42, 24 hours, compared to palbociclib 1 μM)	pIC50 (A2780)	pEC50 (A2780; Table 7a, Ovarian (A2780))
Cc1ccccc1C(=O)Nc1nc(NC(=O)c2ccccc2C)n(-c2ccc(OC(F)(F)F)cc2)n1 [Compound 42, N,N′-(1-(4-(trifluoromethoxy)phenyl)-1H-1,2,4-triazole-3,5-diyl)bis(2-methylbenzamide)]	induced senescence	reduction of cyclin E1 expressions	reduction of cyclin E1 expressions	some reduction of cyclin E1 expression	normalized cyclic D	reduction	reduction of cyclin E and cyclin D expression	decreased	effective in degrading Cyclin D	reduction of Rb expression	reduction	reduction of Rb expression	7.08	7.24
Cc1ccccc1C(=O)Nc1nc(NC(=O)c2ccccc2C)n(-c2ccccc2)n1 [Compound F, 2-methyl-N-[5-[(2-methylbenzoyl)amino]-1-phenyl-1,2,4-triazol-3-yl]benzamide]													5.89	
